These results are taken from BindingDB's records for patent US20240124439 (Pfizer, 2024).

In this assay the target is T1, Tyrosine-protein kinase ITK/TSK (Homo sapiens, UniProt Q08881).
T1 sequence (Q08881 whole entry): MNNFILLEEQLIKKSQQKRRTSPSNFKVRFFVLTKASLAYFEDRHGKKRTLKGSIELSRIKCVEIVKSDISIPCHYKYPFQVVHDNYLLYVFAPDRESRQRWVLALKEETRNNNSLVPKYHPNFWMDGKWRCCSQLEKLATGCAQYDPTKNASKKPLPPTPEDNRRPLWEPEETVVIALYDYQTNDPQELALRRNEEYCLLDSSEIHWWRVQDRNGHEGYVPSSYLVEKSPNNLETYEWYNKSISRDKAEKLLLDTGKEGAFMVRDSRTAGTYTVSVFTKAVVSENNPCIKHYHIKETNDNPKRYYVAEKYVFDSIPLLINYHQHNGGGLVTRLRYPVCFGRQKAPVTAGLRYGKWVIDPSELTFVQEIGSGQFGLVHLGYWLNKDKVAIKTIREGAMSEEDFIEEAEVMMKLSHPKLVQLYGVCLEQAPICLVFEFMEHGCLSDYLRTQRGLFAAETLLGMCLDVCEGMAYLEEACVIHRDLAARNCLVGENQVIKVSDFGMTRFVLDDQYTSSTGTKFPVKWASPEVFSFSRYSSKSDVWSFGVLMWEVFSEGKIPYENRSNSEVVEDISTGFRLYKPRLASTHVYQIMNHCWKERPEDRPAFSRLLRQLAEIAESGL
As to the kind of experiment: ITK Enzyme Assay. How it is done: 1.0 M HEPES Buffer pH 7.5 solution was prepared as follows: 238.3 g HEPES free acid (Sigma) and 800 mL of water were combined, and the mixture was stirred until complete dissolution. The pH was adjusted to 7.5 via titration with 5N NaOH and the volume adjusted to 1000 mL. The solution was filtered and sterilized.ITK assay buffer was prepared as follows: 50 mL of HPLC-grade water was treated with 2 mL of 1.0 M HEPES Buffer, 500 μL of 2% Gelatin (Sigma), 1.0 mL of aqueous MgCl2 solution (1.0 M), and 1.0 mL of aqueous glutathione solution (0.5 M), and the solution was mixed. The solution was brought to 99 mL in a graduated cylinder by addition of water and sterilized through a 0.2 μm filter. 0.1 mL of Brij-35 Surfact-Amps Detergent Solution (10% w/v aqueous solution, ThermoFisher) and 1.0 mL of ATP (Teknova,100 mM) were added and the solution was mixed.Preparation of 1.33 ITK enzyme solution was as follows: 49.99 mL of ITK assay buffer was treated with 4.1 μL of ITK enzyme (ITK FL (N-Flag and C-His tagged, […]) Lake Pharma, 0.25 mg/ml in a buffer containing 25 mM Tris pH 7.8, 150 mM NaCl, 10% glycerol and 2 mM TCEP) and the mixture was gently agitated. The resulting solution was stored on ice. 30 Minutes prior to use, the enzyme solution was removed from ice and equilibrated to RT by incubation in a RT water bath.

The IC50 is the concentration at which inhibition is half-maximal. In the case of `CN(C(=O)CC1CC2(CCC2)C1)c1cnc2nc(-c3n[nH]c4c3C[C@@H]3C[C@]3(C)C4)[nH]c2c1` [US20240124439, Example 49], half-maximal inhibition (IC50) was put at 25 nM.
As for `CCc1nc2[nH]c(-c3n[nH]c4c3C[C@@H]3C[C@]3(C)C4)nc2cc1N(C)C(=O)CN1CCOCC1` [US20240124439, Example 37], half-maximal inhibition (IC50) required 147 nM.
With `CN(C(=O)CC1CC2(C1)CC(F)(F)C2)c1cnc2nc(-c3n[nH]c4c3C[C@@H]3C[C@]3(C)C4)[nH]c2c1` [US20240124439, Example 54], it took 62 nM to reach half-maximal inhibition (IC50).
`CN(C(=O)CC1CC2(C1)CC2(F)F)c1cnc2nc(-c3n[nH]c4c3C[C@@H]3C[C@]3(C)C4)[nH]c2c1` (stereo not given in full) [US20240124439, Example 50] returned an IC50 of 33 nM.
Turning to `CN(C(=O)CC1CC(F)(F)C1)c1cnc2nc(-c3n[nH]c4c3C[C@@H]3C[C@]3(C)C4)[nH]c2c1` [US20240124439, Example 48], the IC50 turned out to be 66 nM.
For `C[C@@H](C(=O)Nc1ccc2[nH]c(-c3n[nH]c4c3CCC(C)(C)C4)nc2c1)N1CCOCC1` [US20240124439, Example 33], the IC50 is 2000 nM.
To `C[C@@H](C(=O)N(C)c1cnc2[nH]c(-c3n[nH]c4c3CCC(C)(C)C4)nc2c1)N1CCOCC1` [US20240124439, Example 14] belongs 147 nM; to `C[C@H](C(=O)N(C)c1cnc2[nH]c(-c3n[nH]c4c3C[C@@H]3C[C@]3(C)C4)nc2c1)N1CCOCC1` [US20240124439, Example 26], 136 nM.
For the molecule `CCN(C(=O)[C@H](C)C1CCOCC1)c1cnc2[nH]c(-c3n[nH]c4c3CCC(C)(C)C4)nc2c1` [US20240124439, Example 18], the IC50 is 28 nM.
Regarding `CC(C)(C(=O)Nc1cnc2[nH]c(-c3n[nH]c4c3C[C@@H]3C[C@]3(C)C4)nc2c1)N1CCOCC1` [US20240124439, Example 16], the IC50 amounted to 747 nM. Compared with the last molecule, the IC50 is about 27-fold higher.
